Measured values from ChEMBL document CHEMBL4387773, “Identification of potent, selective and orally bioavailable phenyl ((R)-3-phenylpyrrolidin-3-yl)sulfone analogues as RORγt inverse agonists” (Bioorg Med Chem Lett, 2019).

Legend:
[1] = target: T1, Nuclear receptor ROR-beta (Homo sapiens, UniProt Q92753); experiment: Inverse agonist activity at human Gal4-fused RORbeta LBD (200 to 559 residues) expressed in human Jurkat cells measured after 18 hrs by steady-glo luciferase reporter gene assay; type: cell-based
T1 sequence (Q92753 whole entry): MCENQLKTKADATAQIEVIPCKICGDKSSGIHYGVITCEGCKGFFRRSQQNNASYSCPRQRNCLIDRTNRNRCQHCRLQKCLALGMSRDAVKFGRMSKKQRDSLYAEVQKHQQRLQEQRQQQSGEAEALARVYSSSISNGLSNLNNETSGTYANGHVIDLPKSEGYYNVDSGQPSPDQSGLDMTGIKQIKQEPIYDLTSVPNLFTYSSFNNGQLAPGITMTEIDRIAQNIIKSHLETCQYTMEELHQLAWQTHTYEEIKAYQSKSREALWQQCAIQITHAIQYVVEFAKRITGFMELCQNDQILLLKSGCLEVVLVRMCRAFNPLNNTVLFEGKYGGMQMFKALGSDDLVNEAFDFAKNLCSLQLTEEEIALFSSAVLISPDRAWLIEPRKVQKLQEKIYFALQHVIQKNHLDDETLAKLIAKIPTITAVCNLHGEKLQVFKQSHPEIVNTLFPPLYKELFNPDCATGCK

[2] = target: T2, Nuclear receptor subfamily 1 group I member 2 (Homo sapiens, UniProt O75469); experiment: Transactivation of PXR (unknown origin) expressed in human HepG2 cells; type: cell-based
T2 sequence (O75469 whole entry): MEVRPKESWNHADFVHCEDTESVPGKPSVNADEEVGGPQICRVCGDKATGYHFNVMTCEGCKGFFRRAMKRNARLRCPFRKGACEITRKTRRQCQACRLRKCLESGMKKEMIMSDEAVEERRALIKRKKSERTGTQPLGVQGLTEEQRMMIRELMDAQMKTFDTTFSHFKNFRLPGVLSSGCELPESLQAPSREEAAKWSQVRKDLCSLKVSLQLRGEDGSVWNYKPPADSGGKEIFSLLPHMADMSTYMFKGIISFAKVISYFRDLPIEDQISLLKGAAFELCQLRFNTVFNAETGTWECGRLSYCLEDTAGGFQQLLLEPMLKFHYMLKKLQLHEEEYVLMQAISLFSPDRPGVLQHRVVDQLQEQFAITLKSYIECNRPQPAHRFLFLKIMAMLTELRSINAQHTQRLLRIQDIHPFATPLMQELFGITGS

[3] = target: T3, Nuclear receptor ROR-gamma (Homo sapiens, UniProt P51449); experiment: Inverse agonist activity at human Gal4-fused RORgammat LBD (267 to 516 residues) expressed in human Jurkat cells measured after 18 hrs by steady-glo luciferase reporter gene assay; type: cell-based
T3 sequence (P51449 whole entry): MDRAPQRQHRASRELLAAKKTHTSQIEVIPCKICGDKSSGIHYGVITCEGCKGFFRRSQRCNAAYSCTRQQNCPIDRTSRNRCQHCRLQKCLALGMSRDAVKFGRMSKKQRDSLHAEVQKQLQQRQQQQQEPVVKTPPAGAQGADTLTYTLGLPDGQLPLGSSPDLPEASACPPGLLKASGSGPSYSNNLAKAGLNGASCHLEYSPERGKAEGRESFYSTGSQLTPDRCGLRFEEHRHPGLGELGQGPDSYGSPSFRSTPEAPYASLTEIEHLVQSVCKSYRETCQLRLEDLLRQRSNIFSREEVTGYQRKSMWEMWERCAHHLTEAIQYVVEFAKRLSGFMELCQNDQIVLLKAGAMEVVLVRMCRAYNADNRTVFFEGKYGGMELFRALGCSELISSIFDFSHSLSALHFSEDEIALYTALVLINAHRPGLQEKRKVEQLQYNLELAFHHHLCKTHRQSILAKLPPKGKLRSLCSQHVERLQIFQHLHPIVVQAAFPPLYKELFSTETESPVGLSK

[4] = target: T4, Oxysterols receptor LXR-beta (Homo sapiens, UniProt P55055); experiment: Transactivation of human GAL4-fused LXRbeta expressed in African green monkey CV1 cells; type: cell-based
T4 sequence (P55055 whole entry): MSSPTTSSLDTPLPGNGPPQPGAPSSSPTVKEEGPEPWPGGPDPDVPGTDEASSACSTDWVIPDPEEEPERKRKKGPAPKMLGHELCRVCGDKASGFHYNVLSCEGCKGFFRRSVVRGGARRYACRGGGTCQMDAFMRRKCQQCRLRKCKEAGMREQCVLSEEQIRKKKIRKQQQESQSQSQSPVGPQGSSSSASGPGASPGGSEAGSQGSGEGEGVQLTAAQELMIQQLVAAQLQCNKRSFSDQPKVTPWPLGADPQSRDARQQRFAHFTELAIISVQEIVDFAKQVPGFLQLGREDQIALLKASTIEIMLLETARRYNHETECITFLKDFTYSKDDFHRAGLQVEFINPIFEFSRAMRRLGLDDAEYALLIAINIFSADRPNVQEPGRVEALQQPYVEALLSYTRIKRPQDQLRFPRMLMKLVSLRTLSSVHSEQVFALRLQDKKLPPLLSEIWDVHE

[5] = Stability in human liver microsomes assessed as parent compound remaining after 10 mins; type: ADME, Microsome; settings: liver microsomes, read-out: Stability
[6] = target: T5, Nuclear receptor ROR-alpha (Homo sapiens, UniProt P35398); experiment: Inverse agonist activity at human Gal4-fused RORalpha LBD (272 to 556 residues) expressed in human Jurkat cells measured after 18 hrs by steady-glo luciferase reporter gene assay; type: cell-based
T5 sequence (P35398 whole entry): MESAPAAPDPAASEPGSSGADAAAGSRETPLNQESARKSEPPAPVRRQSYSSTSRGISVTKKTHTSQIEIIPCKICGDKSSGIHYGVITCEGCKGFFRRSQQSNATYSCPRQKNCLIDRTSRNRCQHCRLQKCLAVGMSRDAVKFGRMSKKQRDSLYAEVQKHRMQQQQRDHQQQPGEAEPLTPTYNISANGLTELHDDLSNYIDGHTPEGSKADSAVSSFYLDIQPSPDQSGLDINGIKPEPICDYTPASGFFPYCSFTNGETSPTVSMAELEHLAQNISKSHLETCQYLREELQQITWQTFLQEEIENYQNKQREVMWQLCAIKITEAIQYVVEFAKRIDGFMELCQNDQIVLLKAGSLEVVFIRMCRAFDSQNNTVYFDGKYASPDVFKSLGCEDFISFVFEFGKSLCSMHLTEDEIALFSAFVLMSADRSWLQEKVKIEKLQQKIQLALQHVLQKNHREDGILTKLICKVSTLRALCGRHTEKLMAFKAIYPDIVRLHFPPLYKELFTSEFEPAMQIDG

[7] = target: T6, Oxysterols receptor LXR-alpha (Homo sapiens, UniProt Q13133); experiment: Transactivation of human GAL4-fused LXRalpha expressed in African green monkey CV1 cells; type: cell-based
T6 sequence (Q13133 whole entry): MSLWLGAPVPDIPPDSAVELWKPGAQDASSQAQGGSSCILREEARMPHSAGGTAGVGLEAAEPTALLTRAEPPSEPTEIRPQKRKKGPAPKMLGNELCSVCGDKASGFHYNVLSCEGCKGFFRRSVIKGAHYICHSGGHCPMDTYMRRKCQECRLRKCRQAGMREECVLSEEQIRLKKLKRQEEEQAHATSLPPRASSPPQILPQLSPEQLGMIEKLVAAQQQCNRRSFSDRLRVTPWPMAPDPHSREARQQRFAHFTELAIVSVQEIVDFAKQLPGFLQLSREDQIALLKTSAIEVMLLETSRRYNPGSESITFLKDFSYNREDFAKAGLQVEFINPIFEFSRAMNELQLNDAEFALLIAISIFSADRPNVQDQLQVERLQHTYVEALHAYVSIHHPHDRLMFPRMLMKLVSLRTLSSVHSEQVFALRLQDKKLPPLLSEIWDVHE

[8] = target: T7, PXR (Homo sapiens, UniProt O75469); experiment: Transactivation of PXR (unknown origin) expressed in human HepG2 cells assessed as maximum receptor activation response relative to control; type: cell-based; settings: human HepG2 cells that express PXR, read-out: %max
T7 sequence (O75469 whole entry): T2 sequence (O75469 whole entry)

[9] = Stability in mouse liver microsomes assessed as parent compound remaining after 10 mins; type: ADME, Microsome; settings: liver microsomes, read-out: Stability

Row | EC50 [1] [µM] | EC50 [2] [µM] | EC50 [3] [µM] | EC50 [4] [µM] | remaining at 10 min [5] [%] | EC50 [6] [µM] | EC50 [7] [µM] | Emax [8] [%] | remaining at 10 min [9] [%] | Structure (SMILES)
1 | > 40 | > 50 | 0.056 | > 7.5 | 80 | > 40 | > 7.5 | 7 | 95 | C[C@]1(C(=O)N2CC[C@](c3ccc(C(F)(C(F)(F)F)C(F)(F)F)cc3)(S(=O)(=O)c3ccc(F)cc3)C2)CC[C@H](C(=O)O)CC1
2 | > 40 | > 50 | 0.776 | > 7.5 | 85 | > 40 | > 7.5 | 18 | 100 | C[C@]1(C(=O)N2CC[C@](c3ccc(C(F)(C(F)(F)F)C(F)(F)F)cc3)(S(=O)(=O)c3ccc(F)cc3)C2)CC[C@@H](C(=O)O)CC1
